Test [1] addresses T1, 3HA-tagged F508del-CFTR in BHK cells (Homo sapiens, UniProt P13569, DEL508-508).
T1 construct: expressed in transfected cells; host or cells: baby hamster kidney (BHK) cells (Carlile et al. 2007)
The test is described as follows: CFTR trafficking assay (surface expression). It counts as cell-based, hamster. The settings on record: for F508del-CFTR surface expression signal (Fig5a): individual replicates; for F508del-CFTR trafficking towards the plasma membrane: BHK cells, 24 h, 10 μM compound. The method, then:
(§1) Twelve (12) validated hit compounds from the initial screening and focused validation library were tested for their effect on F508del-CFTR trafficking. Baby hamster kidney (BHK) cells expressing 3HA-tagged F508del-CFTR were treated for 24 h with 10 μM compound. After fixation of the cells, a combination of mouse monoclonal anti-HA antibody and anti-mouse IgG conjugated with FITC was used to detect F508del-CFTR that had trafficked to the plasma membrane as described previously. […] Additionally, a fluorescence imaging plate reader (FLIPR) Membrane Potential (FMP) assay was performed. This assay measures real-time membrane potential changes associated with ion channel activation and ion transporter proteins. F508del-CFTR expressing BHK cells were incubated for 24 h with 20 μM compound before treatment with the potentiator genistein, FMP dye, and activator forskolin. The fluorescence intensity is thus a measure for the function of the CFTR protein in the plasma membrane of these cells. The F508del-CFTR corrector VX-809 (lumacaftor) and the triple combination Trikafta® were used as positive controls in this assay. […] Another cellular assay was performed with the Ussing Chamber, which detects and quantifies transport of ions across epithelial tissue. F508del-CFTR expressing cystic fibrosis epithelial (CFBE) cells were treated for 18 h with 20 μM CY007424. After forskolin and genistein stimulation, the short-circuit current of the cells was measured.
(§2) Fig. 5 Cellular activity of macrocycles stabilizing the 14-3-3/CFTR PPI. a Surface expression of 3HA-tagged F508del-CFTR in BHK cells incubated for 24 h with 10 μM compound and treated with mouse monoclonal anti-HA antibody and anti-mouse IgG conjugated with FITC (n = 4 or n = 3 biological replicates, bars represent the mean). b, c FLIPR Membrane Potential (FMP) assay of F508del-CFTR expressing BHK cells treated for 24 h with the macrocycles (b, n = 6 biological replicates, bars represent the mean) or with CY007424 and/or VX-809 or Trikafta®, with and without CFTR inhibitor INH172 (c, n = 4 biological replicates, bars represent the mean). d Using chamber experiment of F508del-CFTR expressing CFBE cells treated for 18 h with CY007424, VX-809, or Trikafta® or in combinations. CFTR activity is assayed by measurement of short-circuit current of cells after stimulation by forskolin and the potentiator genistein (n = 3 or n = 6 biological replicates, bars represent the mean). Source data are provided as a Source Data file.
The trafficking assay was performed as previously described by Carlile et al.[21]. In brief, 3HA-tagged F508del-CFTR expressing baby hamster kidney (BHK) cells (cells earlier described by Carlile et. al. 2007)[21] were seeded in 96-well plates (Corning half area, black-sided, clear bottom) at 15,000 cells per well. After 24 h incubation at 37 °C, the cells were treated with 10 μM of compound for 24 h (final DMSO concentration 1% v/v). The cells were fixated with 4% paraformaldehyde, washed with PBS, and then blocked with fetal bovine serum (5% in PBS). Mouse monoclonal anti-HA antibody (H9658 Sigma, 1:150 dilution in PBS) was incubated overnight, and, after three washes with PBS, the background fluorescence was measured in a plate reader (488 nm excitation, 510 nm emission). The secondary antibody anti-mouse IgG conjugated with FITC (F5262 Sigma, 1:100 dilution in PBS) was incubated for 1 h, the cells were washed three times with PBS and analyzed in the plate reader again. Background fluorescence was subtracted from the signal, after which the signal was normalized to the DMSO control and wt-CFTR expressing cells.

The target in test [2] is T2, F508del-CFTR in BHK cells (Homo sapiens, UniProt P13569, DEL508-508).
T2 construct: expressed in transfected cells; host or cells: baby hamster kidney (BHK) cells
T2 sequence (P13569 with tags, fused parts or gaps DEL508-508): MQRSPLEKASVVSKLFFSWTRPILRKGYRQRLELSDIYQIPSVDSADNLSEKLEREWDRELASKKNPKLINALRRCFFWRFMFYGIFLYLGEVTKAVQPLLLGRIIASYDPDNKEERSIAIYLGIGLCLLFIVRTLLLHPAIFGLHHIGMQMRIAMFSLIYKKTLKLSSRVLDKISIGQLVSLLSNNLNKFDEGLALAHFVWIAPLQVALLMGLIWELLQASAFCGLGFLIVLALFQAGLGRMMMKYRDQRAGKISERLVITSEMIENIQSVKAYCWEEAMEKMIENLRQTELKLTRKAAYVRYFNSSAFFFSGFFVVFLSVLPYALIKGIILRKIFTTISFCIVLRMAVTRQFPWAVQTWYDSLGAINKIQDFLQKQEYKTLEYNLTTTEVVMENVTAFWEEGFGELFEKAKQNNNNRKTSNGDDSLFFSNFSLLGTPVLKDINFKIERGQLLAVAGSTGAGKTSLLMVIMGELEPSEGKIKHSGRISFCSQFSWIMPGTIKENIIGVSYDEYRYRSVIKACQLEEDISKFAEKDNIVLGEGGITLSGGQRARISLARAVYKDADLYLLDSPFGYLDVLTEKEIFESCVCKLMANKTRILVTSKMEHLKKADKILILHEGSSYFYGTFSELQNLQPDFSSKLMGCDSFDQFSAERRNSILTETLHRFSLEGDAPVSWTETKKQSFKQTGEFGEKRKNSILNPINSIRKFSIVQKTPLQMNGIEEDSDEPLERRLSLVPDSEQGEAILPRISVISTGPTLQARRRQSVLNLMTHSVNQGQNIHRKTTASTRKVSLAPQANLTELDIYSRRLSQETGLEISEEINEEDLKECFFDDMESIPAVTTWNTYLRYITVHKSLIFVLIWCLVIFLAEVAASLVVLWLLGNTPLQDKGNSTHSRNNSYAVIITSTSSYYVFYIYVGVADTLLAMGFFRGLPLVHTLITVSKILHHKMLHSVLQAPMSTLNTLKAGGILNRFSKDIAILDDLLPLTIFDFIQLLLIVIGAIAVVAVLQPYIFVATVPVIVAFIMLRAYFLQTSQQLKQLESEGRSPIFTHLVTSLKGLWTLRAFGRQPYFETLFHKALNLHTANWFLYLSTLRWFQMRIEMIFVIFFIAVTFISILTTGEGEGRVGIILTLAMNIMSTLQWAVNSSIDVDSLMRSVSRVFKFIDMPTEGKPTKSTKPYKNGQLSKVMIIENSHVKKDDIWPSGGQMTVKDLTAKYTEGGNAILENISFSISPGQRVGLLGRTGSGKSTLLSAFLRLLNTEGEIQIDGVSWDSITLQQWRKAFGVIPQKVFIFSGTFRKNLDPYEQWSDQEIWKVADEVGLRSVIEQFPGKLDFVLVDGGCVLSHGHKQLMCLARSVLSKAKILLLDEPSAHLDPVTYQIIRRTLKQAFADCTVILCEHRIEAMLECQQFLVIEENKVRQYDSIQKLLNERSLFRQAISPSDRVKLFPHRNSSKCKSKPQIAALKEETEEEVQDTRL
The test is described as follows: FLIPR membrane potential (FMP) assay. It is filed as cell-based, hamster. The settings on record: for FMP assay signal (Fig5b) / FMP assay signal (Fig5c): individual replicates; for CFTR function (FMP assay): BHK cells, 24 h, 20 μM compound, genistein, forskolin. The method, then: as §1, §2
The FLuorescence Imaging Plate Reader (FLIPR) Membrane Potential (FMP) assay is based on the technique developed by Van Goor et al.[30] F508del-CFTR expressing baby hamster kidney (BHK) cells were incubated with the compounds for 24 h at 37 °C. The growth medium was removed from the cells by inverting the plate and FMP dye (Molecular Devices, Part #R8042) including the potentiator genistein (Sigma, G6649) was added back in 70 μl of low Cl^- containing buffer (160 mM NaGluconate, 4.5 mM KCl, 2 mM CaCl2, 1 mM MgCl2, 10 mM D-Glucose, 10 mM HEPES (pH7.4)). The plates were incubated for 5 min at RT before activation of CFTR in the plate reader (SynergyMX) with the addition of 14 µL of FMP dye in low Cl^- buffer containing 6x forskolin (Sigma, F6886) following a 2 min baseline read. Fluorescence intensity was monitored for 5 min following CFTR activation. Reported is the rate of fluorescence intensity change over time.

“And” between values parts separate entries of the source, which are not always exact repeats. Equal entries are not always repeated.

T1 sequence (P13569 with tags, fused parts or gaps DEL508-508): as above

With `N=C(N)NCCCC1NC(=O)C(CCCCN)NCc2ccccc2Sc2ccccc2CNC(=O)C(Cc2ccc(O)cc2)NC1=O` (centres unmarked) [CY001951], the “F508del-CFTR surface expression signal (Fig5a)” value in test [1] is 85.2534 and 218.237 and 180.048 and 282.523. Also, the “FMP assay signal (Fig5b)” value in test [2] was 112.821 and 82.214 and 93.607 and 85.25 and 102.571 and 92.764.
Regarding `NCCCCC1NCc2ccccc2Sc2ccccc2CNC(=O)C(Cc2cccc(Cl)c2)NC(=O)C(Cc2ccc(O)cc2)NC1=O` (centres unmarked) [CY007288], the “F508del-CFTR surface expression signal (Fig5a)” value in test [1] is 916.74 and 800.091 and 871.094 and 781.005. Further, in test [2], the “FMP assay signal (Fig5b)” value is 56.536 and 49 and 51.321 and 53.964 and 53 and 52.964.
In the case of `NCCCC1NCc2ccccc2Sc2ccccc2CNC(=O)C(Cc2c[nH]c3ccccc23)NC(=O)C(Cc2ccccc2)NC1=O` (centres unmarked) [CY007345], in test [1], the “F508del-CFTR surface expression signal (Fig5a)” value is -42.2555 and -20.6074 and 61.7766 and 72.7311. For the same compound, in test [2], the “FMP assay signal (Fig5b)” value was 99.75 and 93 and 100.071 and 96.107 and 84.214 and 89.179.
Regarding `N=C(N)NCCCC1NCc2ccccc2Sc2ccccc2CNC(=O)C(Cc2ccc(O)cc2)NC(=O)C(CCCN)NC1=O` (centres unmarked) [CY007424], in test [1], the “F508del-CFTR trafficking towards the plasma membrane” value is given as “strongest increase”; the “F508del-CFTR surface expression signal (Fig5a)” value is 1698.78 and 1774.35 and 1725.92 and 1889.17. Besides, in test [2], the “CFTR function (FMP assay)” value is on record as “clear corrector function”; the “FMP assay signal (Fig5b)” value is 405.536 and 378.214 and 384.321 and 349.393 and 433.679 and 385.071. In test [2] (Compound alone), the “FMP assay signal (Fig5c)” value was 416.179 and 423.464 and 390.429 and 379.429. Moreover, in test [2] (With CFTR-inh172), the “FMP assay signal (Fig5c)” value was 23.036 and 3.107 and 4.393 and -13.071.
As to `N=C(N)NCCCC1NC(=O)C(CCC(N)=O)NC(=O)C(CCCNC(=N)N)NC(=O)C2CCCN2Cc2cccc(c2)-c2ccccc2CNC1=O` (centres unmarked) [CY007455], the “F508del-CFTR surface expression signal (Fig5a)” value in test [1] was 15.0857 and 101.743 and 158.532 and 44.3829. Besides, the “FMP assay signal (Fig5b)” value in test [2] was 35.786 and 28.786 and 56.25 and 44.357 and 64.929 and 56.893.
For the compound `N=C(N)NCCCC1NC(=O)C(CCC(N)=O)NC(=O)C(CCCNC(=N)N)NC(=O)C2CCCN2Cc2cccc(c2)-c2ccccc2CNC1=O` (centres unmarked) [CY007458], the “F508del-CFTR surface expression signal (Fig5a)” value in test [1] was 354.117 and 244.376 and 379.817 and 293.603. Also, in test [2], the “FMP assay signal (Fig5b)” value is 121.393 and 152.286 and 131.821 and 116.107 and 106.464 and 116.643.
In the case of `CC1NC(=O)C(CCCNC(=N)N)NC(=O)C2CCCN2Cc2cccc(c2)-c2ccccc2CNC(=O)C(CCCNC(=N)N)NC1=O` (centres unmarked) [CY007476], in test [1], the “F508del-CFTR trafficking towards the plasma membrane” value is reported as “increase of F508del-CFTR trafficking towards the plasma membrane”; the “F508del-CFTR surface expression signal (Fig5a)” value is 1288.45 and 1177.16 and 1241.43 and 1259.33. In addition, in test [2], the “CFTR function (FMP assay)” value is “inactive”; the “FMP assay signal (Fig5b)” value was 153.964 and 148.571 and 156.714 and 190.464 and 184.357 and 154.25.
For `CN1CC(=O)NC(CCCNC(=N)N)C(=O)NC(CCC(N)=O)C(=O)NC(CCCNC(=N)N)C(=O)NCc2ccccc2-c2cccc(c2)C1` (centres unmarked) [CY007491], in test [1], the “F508del-CFTR trafficking towards the plasma membrane” value was “increase of F508del-CFTR trafficking towards the plasma membrane”; the “F508del-CFTR surface expression signal (Fig5a)” value is 1616.06 and 1494.72 and 1508.75 and 1545.64. In test [2], the “CFTR function (FMP assay)” value is “inactive”; the “FMP assay signal (Fig5b)” value is 58.5 and 35.75 and 49.393 and 59.036 and 29.929 and 21.679.
`N=C(N)NCCCC1NC(=O)C(CCC(N)=O)NC(=O)C(CCCNC(=N)N)NC(=O)C2Cc3ccccc3CN2Cc2cccc(c2)-c2ccccc2CNC1=O` (centres unmarked) [CY007493]: in test [1], the “F508del-CFTR surface expression signal (Fig5a)” value is 225.716 and 325.901 and 303.406 and 383.168. For the same compound, in test [2], the “FMP assay signal (Fig5b)” value is 74.143 and 78.429 and 43.607 and 72 and 65.679 and 76.179.
Turning to `N=C(N)NCCCC1NC(=O)C(CCC(N)=O)NC(=O)C(CCCNC(=N)N)NC(=O)C2CCCN2Cc2ccccc2Sc2ccccc2CNC1=O` (centres unmarked) [CY007502], the “F508del-CFTR surface expression signal (Fig5a)” value in test [1] was 344.243 and 408.371 and 366.875 and 405.395. In addition, the “FMP assay signal (Fig5b)” value in test [2] is 13.036 and 27.929 and 39.536 and 44.036 and 44.893 and 22.781.
With `C=CC(C)(C)OC[C@H]1O[C@H](O[C@@H]2C3=C([C@H](C)COC(C)=O)C[C@H](O)[C@]3(C)/C=C3/[C@@H](COC)CC[C@H]3[C@@H](C)[C@H]2O)[C@H](O)[C@@H](OC(C)=O)[C@@H]1O` [FC-A, fusicoccin A, reference compound], the “F508del-CFTR surface expression signal (Fig5a)” value in test [1] was 1016.54 and 1064.51 and 1045.89. Further, the “FMP assay signal (Fig5c)” value is 170.429 and 204.929 and 173.75 and 189.679 in test [2] (Compound alone); 23.571 and 18.107 and 23.429 and 27.536 in test [2] (With CFTR-inh172). Also, the “FMP assay signal (Fig5b)” value in test [2] was 224.714 and 247.893 and 215.429 and 224.357 and 209.61 and 238.08.
